Results taken from US20170258770A1, “Method for Topically Treating Actinic Keratosis on the Full Face or 250 cm2 on the Chest with Ingenol 3-(3,5-diethylisoxazole-4-carboxylate)” (LEO Laboratories Limited, priority 2014, published 2017).

Assays:
actinic keratosis [1] = test: Part 2 open-label trial, 0.018% gel once daily for three consecutive days, full face or 250 cm^2 chest, actinic keratosis; type: in vivo, human subjects; details: 3 consecutive days
Protocol: Part 2 is a study of the efficacy of the 0.018% dose identified in part 1 in a three day regimen.
In contrast to other similar trials conducted, this trial allows inclusion in the trial of hypertrophic and hyperkeratotic lesion, and separately, the efficacy for these lesions are evaluated.
The outcome for Part 2 is safety and efficacy in a once daily application for three consecutive days on the face/chest. The efficacy in treating of the AK will be measured as reduction in AK count in the treated area of lesions which are not considered hyperkeratotic/hypertrophic.
The reduction in AK count will be performed at week 4 and 8 no matter the type of lesion. Also complete clearance of AKs in the treated area which are not considered hyperkeratotic/hypertrophic at week 8 will be measured.
The trial medication applied is preferably a gel. The gel formulation comprises: isopropyl alcohol, hydroxyethyl cellulose, benzyl alcohol, citric acid monohydrate, sodium citrate dehydrate and water and active compound in a 0.018% concentration. For this particular trial, the dosing is two unit dose tubes daily, each containing 0.67 g.
To qualify for part 2 of the trial, the subjects must have 5-20 clinically visible and discrete AKs within full face or 250 cm^2 area on the chest. In addition to the requirement of 5-20 clinically typical, visible and discrete AKs within the selected treatment area, subjects may also have visible and discrete hyperkeratotic/hypertrophic lesions in this area. The subjects will be treated with a dose of 0.018% as a once daily three consecutive days treatment and followed for 8 weeks.
The trial consists of an initial part, where 18 subjects will be treated on face/chest. […] As this is a safety trial, it is considered justified to conduct this clinical trial as an open-label, uncontrolled trial. An early safety and tolerability evaluation will be performed following the 3 days treatment. If safety and tolerability is found acceptable by the Early Data Review Committee, and additional 44 subjects will be enrolled in order to expand safety observations and obtain an estimate of treatment efficacy.
The patients are scheduled for 7 visits: • Visit 1: within 21 days prior to day 1 • Visit 2: day 1 (application of trial medication) • Visit 3: day 4 (application of trial medication) • Visit 4: day 8 (±2 day) • Visit 5: week 2 (±2 day) • Visit 6: week 4 (±4 day) • Visit 7: week 8 (±7 day)
LSRs are evaluated at all visits following visit 1.
LSRs are evaluated at all visits following visit 1. AK lesion counts are performed on Visit 2, 6 and 7.
At Baseline (Day 1) and Visit 7 (Week 8), the investigator will make a clinical (visual and tactile) assessment of the extent of photo-damage in the treatment area with respect to 1) fine wrinkling, 2) coarse wrinkling, 3) mottled pigmentation, 4) roughness, 5) sallowness, 6) skin laxity, and 7) telangiectasia. Severity for each of these characteristics will be on a 5-point scale: None (0), Mild (1), Moderate (2), Severe (3), Extreme (4).
At Visit 7 (Week 8) the Investigator will make an overall clinical (visual and tactile) assessment of the subject's photo-damage change from baseline in the treatment area (including an integrated assessment of fine wrinkling, coarse wrinkling, mottled pigmentation, roughness, sallowness, skin laxity, and telangiectasia based on the subject's appearance at the baseline visit).
The scoring will be on a 7-point symmetric scale: Marked improvement (+3), Moderate improvement (+2), Minor improvement (+1), No change (0), Minor worsening (−1), Moderate worsening (−2), Marked worsening (−3).
At Visit 7 (Week 8), the subjects will complete a self-assessment questionnaire evaluating the change in the 1) overall appearance of the skin and 2) overall feel of the skin after treatment. The scoring will be on a 5-point scale: Much worsened, Somewhat worsened, No change, somewhat improved, much improved. […]

actinic keratosis [2] = test: Part 1 dose escalation trial, once daily for two consecutive days, face/chest, actinic keratosis; type: in vivo, human subjects
Excerpt: Local skin reactions (LSRs) occur sometimes in the treated area. Often LSRs are quantified by a scale evaluating the following types of skin reactions: erythema, flaking/scaling, crusting, swelling, vasiculation/postulation, and erosion/ulceration which are categorized into categories 0-4 depending on the severity of the reactions.
In the trial pre-defined grades of LSRs will constitute Dose Limiting Toxicity.
Dose Limiting toxicity (DLT) is defined one or more of the following LSRs • crusting Grade 4 • Erosion/ulceration Grade 4 • vesiculation/postulation Grade 4 or
Two or more of the following five LSRs: • Erythema Grade 4 • Crusting Grade 3 • Swelling grade 4 • Erosion/ulceration Grade 3 • vesiculation/postulation Grade 3 or • other clinically relevant signs or symptoms observed, which the Investigator judges to be counted as a DLT.
Maximum tolerated dose (MTD) is declared as dose level at which less than 4 subjects out of experience a DLT of cohort of 12 subjects.
Part 1 was a dose escalation study conducted with a once daily application of trial medication for two consecutive days and continued until the MTD was identified.
Dose escalation proceeded if the safety and tolerability data of the subject up to day 8 was reviewed and considered satisfactory. The treatment consisted of once daily treatment for 2 consecutive days. Up to 5 different doses may be investigated in cohorts of 1 subject. The number of subjects in each cohort depended on the number of observed DLTs. However, the MTD was always be confirmed in a cohort of 12 subjects.
To be included in the trial, Part 1, the subjects must be at least 18 years of age.
Subjects who qualify for Part 1 of the trial must have 5 to 20 actinic keratosis on the face or chest. To be included in the trial part 2 the subjects must have 5-20 clinically typical, visible and discrete actinic keratosis on the face or chest
Part 1: Trial medication, ingenol 3-(3,5-diethylisoxazole-4-carboxylate) gel, will be applied to the treatment area once daily for two consecutive days until the maximum tolerated dose has been reached for each formulation. Up to five different doses of active compound in gel may be investigated in cohorts 12 subjects. Predefined grades of Local Skin Responses (LSRs) will constitute dose limiting toxicity (DLT). The maximum tolerated dose is defined as the highest dose level at which less than 4 out of 12 subjects experience a Dose limiting toxicity.
The doses will be administered in an escalating manner following review of safety and tolerability data performed by the dose escalation committee. Evaluation of the safety and tolerability data will be performed after Visit 5/day 8. Then subjects will be followed for 8 weeks after first application of investigational product.

dermal tumours = test: in vivo studies in mice, effects on dermal tumours; details: compared with ingenol mebutate
Excerpt: The exact mechanism of action of ingenol 3-(3,5-diethylisoxazole-4-carboxylate) continues to be investigated, but it is believed that ingenol 3-(3,5-diethylisoxazole-4-carboxylate) has a dual mechanism of action inducing cell death as well as stimulation of immune response.

[3] = at 0.018% dose, two day regimen

CCc1noc(CC)c1C(=O)O[C@H]1C(C)=C[C@]23C(=O)[C@@H](C=C(CO)[C@@H](O)[C@]12O)[C@H]1[C@@H](C[C@H]3C)C1(C)C [ingenol 3-(3,5-diethylisoxazole-4-carboxylate)]
cosmetic outcome of the treatment (actinic keratosis [1]): good | side-effects (actinic keratosis [1]): acceptable | subjects reporting improvement in appearance and feel (actinic keratosis [1]; cosmetic outcome self-assessment): more than 90% | patients with photo damage improved (actinic keratosis [1]; investigator assessment, fraction of patients): two-thirds | time at which side-effects maximize (actinic keratosis [1]; rapid decline thereafter): 4 days | complete clearance (actinic keratosis [1]; week 4, 63 patients): 37% | reduction in AK count (actinic keratosis [1]; week 4, 63 patients): 81% | complete clearance (actinic keratosis [1]; week 8 (the same as week 4)): 37% | reduction in AK count (actinic keratosis [1]; week 8 (the same as week 4)): 81% | application site adverse events (actinic keratosis [2]; [3]): minimal | local skin reactions (LSRs) (actinic keratosis [2]; [3]): mild | maximum tolerated dose (MTD) (actinic keratosis [2]; gel, once daily for 2 consecutive days, face/chest, MTD = highest dose with DLT in less than 4 of 12 subjects): 0.018% | tolerability with respect to LSRs and application site reaction (actinic keratosis [2]; selected dose 0.018%, two days dosing regimen): well tolerated | efficacy in eliminating dermal tumours (dermal tumours): more efficacious than ingenol mebutate
